In paper PMC11073699, “Odorant receptors for floral- and plant-derived volatiles in the yellow fever mosquito, Aedes aegypti (Diptera: Culicidae)” (PLOS ONE, 2024):
Several values for one entry are separate records, joined by “and”; a condition that tells them apart may be missing. Equal entries are not always repeated.

Experiments:
Type in all cases: cell-based
AaegOR15 = molecular target: T1, AaegOR15 (Aedes aegypti, UniProt A0A6B9QIR2); assay: Two-electrode voltage clamp of Xenopus laevis oocytes expressing AaegOR15/Orco (blends, unitary compounds, concentration-response); conditions: unitary compounds of Alcohols 2; for Raw data (Responses in nA), compounds of blend Alcohols 2: individual oocytes 1-10 (replicates)
T1 sequence (A0A6B9QIR2 1-390): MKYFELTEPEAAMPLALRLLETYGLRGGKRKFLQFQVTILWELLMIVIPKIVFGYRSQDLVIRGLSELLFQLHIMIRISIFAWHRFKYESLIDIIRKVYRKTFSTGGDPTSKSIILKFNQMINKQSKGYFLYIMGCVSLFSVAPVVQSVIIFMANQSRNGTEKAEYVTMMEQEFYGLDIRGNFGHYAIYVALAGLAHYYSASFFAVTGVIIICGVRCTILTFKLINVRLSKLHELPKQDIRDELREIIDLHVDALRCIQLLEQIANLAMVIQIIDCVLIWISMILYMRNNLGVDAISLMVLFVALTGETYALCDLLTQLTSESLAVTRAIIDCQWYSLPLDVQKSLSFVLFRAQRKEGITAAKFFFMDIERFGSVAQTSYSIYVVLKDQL
T1 sequence (Q178U6 1-478 partner): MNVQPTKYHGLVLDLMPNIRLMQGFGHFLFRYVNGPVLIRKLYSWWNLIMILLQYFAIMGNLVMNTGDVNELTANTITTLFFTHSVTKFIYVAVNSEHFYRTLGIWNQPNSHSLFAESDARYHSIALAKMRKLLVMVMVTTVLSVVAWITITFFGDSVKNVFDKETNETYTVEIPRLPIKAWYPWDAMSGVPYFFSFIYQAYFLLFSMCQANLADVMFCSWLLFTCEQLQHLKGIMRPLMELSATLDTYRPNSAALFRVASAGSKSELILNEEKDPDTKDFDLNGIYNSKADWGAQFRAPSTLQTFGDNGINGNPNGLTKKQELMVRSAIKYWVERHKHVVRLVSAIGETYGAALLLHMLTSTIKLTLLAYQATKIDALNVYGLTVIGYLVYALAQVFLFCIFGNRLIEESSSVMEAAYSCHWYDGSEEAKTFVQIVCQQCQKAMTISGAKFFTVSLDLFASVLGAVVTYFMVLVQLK
Method in brief: (§1)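 Xenopus oocytes injected with cRNA for AaegOR plus Orco, kept 48–72 hrs at 18°C, clamped at -80 mV by TEVC. Odorant blends or single compounds (10% DMSO dilutions) perfused 10–15 s; concentration-response from 10^-3M to 10^-9M, ≥7 responding oocytes, ≥2 biological replicates.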

AaegOR13 = molecular target: T2, AaegOR13 (Aedes aegypti, UniProt Q16Z13); assay: Two-electrode voltage clamp of Xenopus laevis oocytes expressing AaegOR13/Orco (blends, unitary compounds, concentration-response); conditions: unitary compounds
T2 sequence (Q16Z13 1-389): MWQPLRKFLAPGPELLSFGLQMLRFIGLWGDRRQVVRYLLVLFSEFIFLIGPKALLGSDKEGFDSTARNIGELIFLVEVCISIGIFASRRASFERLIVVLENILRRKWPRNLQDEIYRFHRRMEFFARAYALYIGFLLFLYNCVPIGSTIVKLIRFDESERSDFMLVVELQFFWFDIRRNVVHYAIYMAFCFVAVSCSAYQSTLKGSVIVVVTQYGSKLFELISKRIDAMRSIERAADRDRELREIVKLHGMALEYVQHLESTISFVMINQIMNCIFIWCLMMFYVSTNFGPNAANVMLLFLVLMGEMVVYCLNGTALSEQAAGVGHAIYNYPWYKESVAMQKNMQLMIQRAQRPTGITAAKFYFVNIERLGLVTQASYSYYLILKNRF
T2 sequence (Q178U6 1-478 partner): T1 sequence (Q178U6 1-478 partner)
Method in brief: as §1

AaegOR28 = molecular target: T3, AaegOR28 (Aedes aegypti, UniProt Q0IGE1); assay: Two-electrode voltage clamp of Xenopus laevis oocytes expressing AaegOR28/Orco (blends, unitary compounds, concentration-response); conditions: AaegOR28, compounds of blend Alcohols 3; for Raw Data (Responses in nA), Alcohols 3 unitary compounds: individual oocytes 1-10
T3 sequence (Q0IGE1 1-394): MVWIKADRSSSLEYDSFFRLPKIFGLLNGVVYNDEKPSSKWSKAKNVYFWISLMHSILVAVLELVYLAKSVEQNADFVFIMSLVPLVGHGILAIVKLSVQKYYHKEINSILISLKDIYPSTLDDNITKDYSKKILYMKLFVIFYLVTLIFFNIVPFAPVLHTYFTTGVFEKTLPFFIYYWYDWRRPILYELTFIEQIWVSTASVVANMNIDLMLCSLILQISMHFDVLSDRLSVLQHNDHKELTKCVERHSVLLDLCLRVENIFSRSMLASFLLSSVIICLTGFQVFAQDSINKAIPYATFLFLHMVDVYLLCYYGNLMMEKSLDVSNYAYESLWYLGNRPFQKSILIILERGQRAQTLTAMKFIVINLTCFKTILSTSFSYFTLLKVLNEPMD
T3 sequence (Q178U6 1-478 partner): T1 sequence (Q178U6 1-478 partner)
Excerpt: (§2) The coding regions of ten AaegOR genes of interest (S3 File) and AaegOrco were synthesized by Twist Bioscience (San Francisco, CA, USA) and cloned into the pENTR plasmid. The Gateway LR directional cloning system (Invitrogen Corp., Carlsbad, CA, USA) was utilized to subclone AaegOR coding regions into the pSP64t-RFA oocyte expression plasmid. Plasmids were purified using the GeneJet Plasmid Miniprep Kit (ThermoFisher Scientific, Waltham, MA, USA). Purified plasmids were sequenced in both directions to confirm coding regions.
(§3) Chemical compounds (S6 File) used in the deorphanization of AaegORs were purchased from Acros Organics (Morris, NJ, USA), Alfa Aesar (Ward Hill, MA, USA), and ThermoFisher Scientific (Waltham, MA, USA) at the highest purity available. Compounds were stored as 1M stocks in 100% DMSO. Serial dilutions of each compound were prepared in 10% DMSO and blended by chemical class.
(§4) pSP64t-RFA: AaegOR clones were linearized using Xbal, and cRNAs were synthesized using the mMESSAGE mMACHINE ® SP6 kit (Life Technologies, Carlsbad, CA, USA). Xenopus laevis stage V-VII oocytes purchased from Xenopus1 (Dexter, MI, USA) were stored at 18°C in Incubation medium (ND96 96 with 5% dialyzed horse serum, 50μg/mL gentamycin, 100μg/mL streptomycin, 100μg/mL penicillin, and 550μg/mL sodium pyruvate). 30nL of cRNA was injected into multiple oocytes using a microinjection syringe pump (World Precision Instruments, Sarasota, FL, USA) maintained at 18°C for 48–72 hrs. Odorant blends were perfused across individual oocytes for 10–15 seconds, held at a resting membrane potential of -80 mV using an OC-725C oocyte clamp (Warner Instruments, LLC, Hamden, CT, USA). Induced currents were measured indirectly using the two-electrode voltage clamp technique (TEVC). Following each stimulus, currents were allowed to return to baseline before further stimulation. Data was captured using the Digidata 1550 B digitizer and PClamp10 software (Molecular Devices, San Jose, CA, USA). Concentration-response curves were generated by perfusing unitary odorants over oocytes at increasing concentrations from [10^-3M] to [10^-9M]. Data were analyzed using GraphPad Prism 8 (GraphPad Software Inc., La Jolla, CA, USA). At least two biological replicates were conducted at each concentration and for each compound. Data for at least seven oocytes responding to each compound was analyzed (S7 File).

AaegOR55 = molecular target: T4, AaegOR55 (Aedes aegypti, UniProt Q16T12); assay: Two-electrode voltage clamp of Xenopus laevis oocytes expressing AaegOR55/Orco (blends, unitary compounds, concentration-response); conditions: AaegOR55; compounds of blend Indoles 1; individual oocytes (Oocyte 1-7)
T4 sequence (Q16T12 10-392): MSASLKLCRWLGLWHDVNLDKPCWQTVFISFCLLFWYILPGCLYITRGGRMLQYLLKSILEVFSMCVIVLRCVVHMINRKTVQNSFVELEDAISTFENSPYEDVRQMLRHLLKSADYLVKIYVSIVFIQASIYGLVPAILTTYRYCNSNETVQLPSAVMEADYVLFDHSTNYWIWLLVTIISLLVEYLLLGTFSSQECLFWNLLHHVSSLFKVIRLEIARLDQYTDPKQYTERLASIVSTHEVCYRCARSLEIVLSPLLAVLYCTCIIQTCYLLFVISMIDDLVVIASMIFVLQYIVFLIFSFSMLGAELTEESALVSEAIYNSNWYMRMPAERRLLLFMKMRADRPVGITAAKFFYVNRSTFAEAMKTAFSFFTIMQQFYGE
T4 sequence (Q178U6 1-478 partner): T1 sequence (Q178U6 1-478 partner)
Excerpt: as §2, §3, §4

AaegOR10 = molecular target: T5, AaegOR10 (Aedes aegypti, UniProt Q177X3); assay: Two-electrode voltage clamp of Xenopus laevis oocytes expressing AaegOR10/Orco (blends, unitary compounds, concentration-response); conditions: unitary compounds of Indoles 1; individual oocytes 1-9 (replicates)
T5 sequence (Q177X3 1-375): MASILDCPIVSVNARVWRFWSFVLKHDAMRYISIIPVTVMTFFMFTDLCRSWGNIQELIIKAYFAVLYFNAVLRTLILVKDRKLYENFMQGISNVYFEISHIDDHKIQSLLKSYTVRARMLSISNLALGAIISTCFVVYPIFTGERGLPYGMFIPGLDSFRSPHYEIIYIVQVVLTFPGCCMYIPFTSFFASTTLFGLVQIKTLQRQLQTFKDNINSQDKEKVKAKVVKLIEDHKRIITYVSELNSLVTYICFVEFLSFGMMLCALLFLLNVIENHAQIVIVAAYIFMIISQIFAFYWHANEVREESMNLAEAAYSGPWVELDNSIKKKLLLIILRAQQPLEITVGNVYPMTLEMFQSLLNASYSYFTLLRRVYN
T5 sequence (Q178U6 1-478 partner): T1 sequence (Q178U6 1-478 partner)
Excerpt: as §2, §3, §4

SMILES | Raw data (Responses in nA), compounds of blend Alcohols 2 (AaegOR15) | Raw data (Responses in nA), unitary compounds of Indoles 1, Alcohols 1, Alcohols 3 (AaegOR13; individual oocytes 1-7) | Raw Data (Responses in nA), Alcohols 3 unitary compounds (AaegOR28) | Normalized response, compounds of blend Alcohols 2, Average (AaegOR15; average of 10 oocytes, 1-hexanol = 100) | Normalized response, compounds of blend Alcohols 2 (AaegOR15; individual oocytes 1-10, normalized to the largest response of each oocyte (1-hexanol = 100)) | Normalized response, unitary compounds, Average (AaegOR13; average of oocytes 1-7) | Normalized response, unitary compounds of Indoles 1, Alcohols 1, Alcohols 3 (AaegOR13; normalized per oocyte, individual oocytes 1-7) | Normalized response, Average, Alcohols 3 unitary compounds (AaegOR28; average of 10 oocytes) | Normalized response, Alcohols 3 unitary compounds (AaegOR28; individual oocytes 1-10, normalized to largest response of each oocyte) | Raw Data (Responses in nA), Indoles 1 unitary compounds (AaegOR55) | Raw response, unitary compounds of blend Indoles 1 (AaegOR10)
CC12CCC(CC1)C(C)(C)O2 [1,8-cineole] | 0.0 nA (3×) and 5.0 nA (3×) and 10.0 nA (4×) | 0.0 nA | 5 nA and 0 nA (9×) |  |  |  |  |  |  |  | 
C=CCc1ccc(O)c(OC)c1 [Eugenol] | 0.0 nA (2×) and 5.0 nA and 10.0 nA (3×) and 15.0 nA (2×) and 30.0 nA and 20.0 nA | 20.0 nA and 430.0 nA and 105.0 nA and 220.0 nA and 160.0 nA (2×) and 100.0 nA | 0 nA |  |  |  |  |  |  |  | 
C=CC(C)(O)CC/C=C(\C)CC/C=C(\C)CCC=C(C)C (centres unmarked) [Geranyl Linalool] | 0.0 nA (7×) and 10.0 nA (3×) | 0.0 nA | 0 nA | 0.4 | 0.0 (7×) and 1.3 and 0.9 and 1.7 | 0.0 | 0.0 | 0.0 | 0.0 (9×) and 0 |  | 
O=Cc1c[nH]c2ccccc12 [indole-3-carboxaldehyde] |  |  |  |  |  |  |  |  |  | 50.0 nA and 25.0 nA (2×) and 40.0 nA and 20.0 nA and 45.0 nA and 35.0 nA | 80.0 nA and 30.0 nA and 100.0 nA and 20.0 nA (2×) and 70.0 nA and 0.0 nA (3×)
